# Experimental data taken from patent publication US8859545B2, “Tetrahydronaphthyridine and tetrahydropyrido[4,3-D]pyrimidine compounds and compositions thereof useful for the treatment of inflammatory and respiratory diseases” (Evotec AG, priority 2005, dated 2014).
# System: P2X2/3 chimera (P2X2/3C)
# Test: Calcium uptake assay (P2X antagonist assay, agonist-induced calcium influx)
# Format: cell-based
# Details: at 3 μM (symbol before the slash)
# Excerpt: Human P2X3 (Accession no. NM_002559), P2X2 (Accession no. NM_170682) and Rat P2X3 (Accession no. NM_031075) and P2X2 (Accession no. NM_053656) are cloned into a mammalian expression vector (e.g., pcDNA5/TO or pcDNA3 Invitrogen). For coexpression of P2X2 and P2X3, the coding regions of both receptors were cloned into a bicistronic vector using methods similar to those described by Kawashima et al., Receptors Channels 5:53-60, 1998. The P2X2/3 chimera clone was created as described by Neelands et al, and then cloned into an expression vector as above. Receptors are expressed in cells (e.g., HEK293 or 1321N1) via transient transfection using standard lipid mediated transfection, or by creation of stable transfectants for each receptor. Cell lines are maintained in DMEM+5% Glutamax, the appropriate level of selective antibiotic, and 10% heat inactivated FBS.
# The agonist EC50 is determined at the start of the assay and compound IC50 experiments are run using a set agonist concentration (EC50-90 depending on cell line) as stimulus. The agonists used are αβMeATP, ATP, or other ATP analogs. Compounds may be tested at concentrations ranging from 1 μM to 10 μM. Functional activity of compounds at the P2X receptor is determined by measuring their ability to inhibit agonist-induced calcium influx. Compounds may be tested for antagonist activity against the P2X2/3 chimera, the P2X3 homomer, or the P2X2/3 heteromer. To test for antagonist activity, cells expressing the appropriate receptor are seeded onto 96 or 384 well plates 18-24 hours prior to assay. On the day of the assay, cells are loaded with calcium-sensitive fluorescent dye (e.g., Fluo-4 no wash reagent-Invitrogen cat# F36206, or the BD™ PBX Calcium Assay Kit-BD cat#640175) in Hank's Buffered Salt Solution (HBSS) with up to 10 mM supplemental CaCl2. Plates are incubated at 37° C. and then equilibrated at room temperature. Antagonism of agonist-induced calcium influx is measured using a fluorescent imaging plate reader. The assay comprises two stages: a pre-treatment phase followed by a treatment phase. Compounds may be tested as follows: For the pre-treatment phase, 50 μL of 3× concentration of test compound in HBSS is added to cells containing 100 μL of dye loading media to achieve a final concentration of 1×. For the treatment phase, at a set interval after pre-treatment, 50 μL of 1× test compound plus 4× agonist solution is added to cells. Fluorescence is measured at 0.1-3 second intervals with an excitation wavelength of 494 nm and an emission wavelength of 515 nm. Responses are measured as peak fluorescence after compound-agonist addition minus baseline fluorescence prior to treatment. Percent inhibition is calculated as follows: […]
# A calcium uptake assay was performed as described in paragraphs […] above.
row,SMILES,Ca Influx P2X2/3C % Inhibition at 3 μM/10 μM
1,Cc1ccc(N2CCc3ncnc(NCc4ccc(Cl)cc4Cl)c3C2)nc1 [Compound 78],+/ (compound exhibited 0-25% inhibition at 3 μM)
2,"Clc1cccnc1N1CCc2ncnc(Nc3ccccc3)c2C1 [Compound 2, 6-(3-Chloropyridin-2-yl)-5,6,7,8-tetrahydro-N-phenylpyrido[4,3-d]pyrimidin-4-amine]",+/ (compound exhibited 0-25% inhibition at 3 μM)
3,Cc1ccc(N2CCc3ncnc(NCc4ccc(C(C)C)cc4)c3C2)nc1 [Compound 58],+/ (compound exhibited 0-25% inhibition at 3 μM)
4,Cc1ccc(N2CCc3ncnc(NCc4cc(C(F)(F)F)cc(C(F)(F)F)c4)c3C2)nc1 [Compound 125],+/ (compound exhibited 0-25% inhibition at 3 μM)
5,Cc1ccc(N2CCc3ncnc(N(C)Cc4ccccc4)c3C2)nc1 [Compound 36],+/ (compound exhibited 0-25% inhibition at 3 μM)
6,Cc1ccc(N2CCc3ncnc(NCc4ccc(Cl)cc4F)c3C2)nc1 [Compound 83],+++/ ^ (compound exhibited 50-75% inhibition at 3 μM)
7,COc1cccc(CNc2ncnc3c2CN(c2ccc(C)cn2)CC3)c1 [Compound 28],++++ (compound exhibited 75% or greater inhibition at 3 μM)
8,COc1ccc(CN(C)c2ncnc3c2CN(c2ccc(C)cn2)CC3)cc1OC [Compound 59],++ (compound exhibited 25-50% inhibition at 3 μM)
9,"CN1CC(C)(C)c2ccc(Nc3ncnc4c3CN(c3ncccc3Cl)CC4)cc21 [Compound 16, [6-(3-Chloro-pyridin-2-yl)-5,6,7,8-tetrahydro-pyrido[4,3-d]pyrimidin-4-yl]-(3,3-dimethyl-2,3-dihydro-1-methyl-indol-6-yl)-amine]",+/ (compound exhibited 0-25% inhibition at 3 μM)
10,Cc1ccc(N2CCc3ncnc(NCc4cccc(C)c4C)c3C2)nc1 [Compound 80],+/ (compound exhibited 0-25% inhibition at 3 μM)
11,Cc1ccc(N2CCc3ncnc(NCCc4cccc(C(F)(F)F)c4)c3C2)nc1 [Compound 61],++++ (compound exhibited 75% or greater inhibition at 3 μM)
12,Cc1ccc(N2CCc3ncnc(NCc4cc(C(F)(F)F)ccc4F)c3C2)nc1 [Compound 74],+/ (compound exhibited 0-25% inhibition at 3 μM)
13,Cc1ccc(N2CCc3ncnc(NCc4ccc(C(C)(C)C)cc4)c3C2)nc1 [Compound 44],+/ (compound exhibited 0-25% inhibition at 3 μM)
14,Cc1ccc(N2CCc3ncnc(NCc4ccc5c(c4)OCO5)c3C2)nc1 [Compound 37],++++/ ^ (compound exhibited 75% or greater inhibition at 3 μM)
15,Cc1ccc(N2CCc3ncnc(NCCc4ccc(Cl)cc4)c3C2)nc1 [Compound 48],++++/ ^ (compound exhibited 75% or greater inhibition at 3 μM)
16,Cc1ccc(N2CCc3ncnc(NCc4cc(F)cc(C(F)(F)F)c4)c3C2)nc1 [Compound 75],+/ (compound exhibited 0-25% inhibition at 3 μM)

# Same assay, conditions: at 10 μM (symbol after the slash)
row,SMILES,Ca Influx P2X2/3C % Inhibition at 3 μM/10 μM
1,COc1cccc(CNc2ncnc3c2CN(c2ccc(C)cn2)CC3)c1 [Compound 28],**** (compound exhibited 25-50% inhibition at 10 μM)
2,COc1ccc(CN(C)c2ncnc3c2CN(c2ccc(C)cn2)CC3)cc1OC [Compound 59],**** (compound exhibited 25-50% inhibition at 10 μM)
3,"Cc1ccccc1N1CCc2ncnc(Nc3ccc(C(F)(F)F)cc3)c2C1 [Compound 10, N-(4-(Trifluoromethyl)phenyl)-5,6,7,8-tetrahydro-6-o-tolylpyrido[4,3-d]pyrimidin-4-amine]",/* (compound exhibited 0-25% inhibition at 10 μM)
4,"Cc1ccc(N2CCc3ncnc(NCC4(O)CCCC(C)(C)C4)c3C2)nc1 (stereo not drawn) [Compound 18, 3,3-Dimethyl-1-{[6-(5-methyl-pyridin-2-yl)-5,6,7,8-tetrahydro-pyrido[4,3-d]pyrimidin-4-ylamino]-methyl}-cyclohexanol]",/* (compound exhibited 0-25% inhibition at 10 μM)
5,Cc1ccc(N2CCc3ncnc(NCCc4cccc(C(F)(F)F)c4)c3C2)nc1 [Compound 61],**** (compound exhibited 25-50% inhibition at 10 μM)
